Measured values published in publication PMC4774972, “Activity and Predicted Nephrotoxicity of Synthetic Antibiotics Based on Polymyxin B” (Journal of Medicinal Chemistry, 2016).
≈ marks a conversion by molar mass, not a printed value. Numbered stars: 1 amine (or outer) side, 2 acyl side, 3 side chain; on linkers, the order of the positions; unused ones are H or OH. Bridge positions count the residues as written; N and C are the ends. Square brackets hold non-standard residues; d marks the D form. Peptide text beside a SMILES is read from it. * marks the point of attachment. Benzoyl(4-OPh) = O=C(c1ccc(Oc2ccccc2)cc1)*; Benzoyl(4-Ph) = O=C(c1ccc(-c2ccccc2)cc1)*; dGly(nOct) = CCCCCCCC[C@@H](N)C(=O)O; NH(2-ClPh) = Clc1ccccc1N*; dDab = NCC[C@@H](N)C(=O)O; hSer = N[C@@H](CCO)C(=O)O; Octanoyl = CCCCCCCC(=O)*; Dab = NCC[C@H](N)C(=O)O; CO = O=C([*:1])[*:2]

Legend:
HepG2 = settings: CC50 HepG2 (µM)
[1] = system: K. pneumoniae CI 138-16357-20362, PmxR; test: microbe, parasite or virus in culture; type: cell-based, Klebsiella pneumoniae
Procedure: (§1) Bacteria were either obtained from American Type Culture Collection (ATCC; Manassas, VA, USA) or independent academic clinical isolate collections, as listed in Table S2. Bacteria were cultured in nutrient broth (NB; Bacto Laboratories, catalog no. 234000) or Muller Hinton broth (MHB; Bacto Laboratories, catalog no. 211443) at 37 °C overnight with shaking (∼180 rpm). A sample of each culture was then diluted 50-fold in fresh MHB and incubated at 37 °C for 1.5–3 h with shaking (∼180 rpm). Compound stock solutions were prepared as 0.64 or 2.56 mg/mL in water. The compounds, at twice the final desired concentration, were serially diluted 2-fold across the wells of 96-well plates (Polystyrene, Corning, catalogue No. 3370). Mid log phase bacterial cultures (after 1.5–3 h incubation) were diluted to a final concentration of 5 × 10^5 colony forming units (CFU)/mL, and 50 μL was added to each well giving a final compound concentration range of 32 μg/mL to 0.015 μg/mL (128–0.06 μg/mL for colistin and polymyxin B against the polymyxin resistant clinical isolates). MICs were determined visually after 18 h of incubation at 37 °C, with the MIC defined as the lowest compound concentration at which no bacterial growth was visible.
(§2) Table S2. Bacterial strains used for Minimum Inhibitory Concentration (MIC) […]
(§3) Organism Strain Strain description Strain Source
(§4) Escherichia coli ATCC 25922 FDA strain Seattle 1946 ATCC
(§5) Klebsiella pneumoniae ATCC 13883 Control strain ATCC
(§6) Klebsiella pneumoniae ATCC 700603 Multi-drug resistant ATCC
(§7) Klebsiella pneumoniae BAA-2146 Metallo-beta-lactamase- ATCC
(§8) Acinetobacter baumannii ATCC 19606 Type strain ATCC
(§9) Pseudomonas aeruginosa ATCC 27853 Type strain ATCC
(§10) Pseudomonas aeruginosa FADDI-PA070 Clinical isolate, Nation and Li labs, polymyxin resistant Monash University
(§11) Clinical isolate, Wang Hengzhuang, Pseudomonas aeruginosa PA9704 polymyxin resistant University Hospital of […]
(§12) Ptyela Clinical isolate, Ilias Karaiskos and Acinetobacter baumannii Carbapenem & Helen Giamarellou
(§13) Clinical isolate, Medicine, Hygeia
(§14) Klebsiella pneumoniae Koprana Carbapenem, & General Hospital, […]
(§15) Clinical isolate, (Instituto Dante […]
(§16) polymyxin resistant Cardiologia, São […]

[2] = system: K. pneumoniae CI Koprana 100650661:1, PmxR; test: microbe, parasite or virus in culture; type: cell-based, Klebsiella pneumoniae; settings: carbapenem & polymyxin resistant clinical isolate; MHB, 5 × 10^5 CFU/mL, 18 h at 37 °C
Procedure: as §1, §2, §3, §4, §5, §6, §7, §8, §9, §10, §11, §12, §13, §14, §15, §16

[3] = system: P. aeruginosa PA9704, PmxR; settings: MIC P. aeruginosa PA9704, PmxR (µg/mL)
[4] = system: K. pneumoniae CI 138-16357-20362, PmxR; settings: MIC K. pneumoniae CI 138-16357-20362, PmxR (µg/mL)
[5] = system: S. aureus ATCC 25923, MSSA; settings: MIC S. aureus ATCC 25923, MSSA (µg/mL)
[6] = system: K. pneumoniae CI Koprana 100650661:1, PmxR; settings: MIC K. pneumoniae CI Koprana 100650661:1, PmxR (µg/mL)
[7] = system: primary human renal proximal tubule epithelial (hPT) cells; test: Nephrotoxicity assay, LDH release; type: cell-based; settings: for release of LDH: at 100 μg/mL in the primary kidney cells; for LDH release CC50: primary human kidney cells
From the text: (§17) Primary human renal proximal tubule epithelial (hPT) cells were isolated and used for in vitro prediction of drug-induced nephrotoxicity[63],[64],[69] by measuring the release of metabolism enzymes, LDH and GGT, as previously described.[70]

[8] = system: primary human renal proximal tubule epithelial (hPT) cells; test: Nephrotoxicity assay, GGT release; type: cell-based; settings: for release of GGT: at 100 μg/mL in the primary kidney cells; for GGT release CC50: primary human kidney cells
From the text: as §17

[9] = system: A. baumannii CI Ptyela 100734512:2, PmxR; test: microbe, parasite or virus in culture; type: cell-based, Acinetobacter baumannii; settings: carbapenem & polymyxin resistant clinical isolate; MHB, 5 × 10^5 CFU/mL, 18 h at 37 °C
Procedure: as §1, §2, §3, §4, §5, §6, §7, §8, §9, §10, §11, §12, §13, §14, §15, §16

[10] = system: S. aureus ATCC 25923, MSSA; test: microbe, parasite or virus in culture; type: cell-based, Staphylococcus aureus; settings: MHB, 5 × 10^5 CFU/mL, read visually after 18 h at 37 °C
Procedure: as §1, §2, §3, §4, §5, §6, §7, §8, §9, §10, §11, §12, §13, §14, §15, §16

[11] = system: A. baumannii CI Ptyela 100734512:2, PmxR; settings: MIC A. baumannii CI Ptyela 100734512:2, PmxR (µg/mL)
HepG2 cells = test: Cytotoxicity assay (resazurin assay); type: cell-based, human; settings: 4000 cells/well, 24 h incubation with compound, fluorescence 560/590
Procedure: Cytotoxicity to HEK293 and HepG2 cells was determined using the resazurin assay.[67],[68] […] Compounds were then added into each well. After 24 h incubation, 5 μM resazurin was added per well and incubated at 37 °C for 2 h. Fluorescence intensity was then read using a Polarstar Omega with excitation/emission 560/590. The data were then analyzed using GraphPad Prism 6 software. CC50 values were determined using GraphPad Prism 6 software (Inc. La Jolla, CA).

[12] = system: P. aeruginosa PA9704, PmxR; type: cell-based, Pseudomonas aeruginosa; settings: polymyxin resistant clinical isolate; MHB, 5 × 10^5 CFU/mL, 18 h at 37 °C
Procedure: as §1, §2, §3, §4, §5, §6, §7, §8, §9, §10, §11, §12, §13, §14, §15, §16

[13] = system: P. aeruginosa FADDI-PA070, PmxR; settings: MIC P. aeruginosa FADDI-PA070, PmxR (µg/mL)
K. pneumoniae ATCC 13883 = settings: MIC K. pneumoniae ATCC 13883 (µg/mL)
P. aeruginosa ATCC 27853 = settings: MIC P. aeruginosa ATCC 27853 (µg/mL)
E. coli ATCC 25922 = settings: MIC E. coli ATCC 25922 (µg/mL)
A. baumannii ATCC 19606 = settings: MIC A. baumannii ATCC 19606 (µg/mL)
[14] = system: K. pneumoniae ATCC 700603, MDR; settings: MIC K. pneumoniae ATCC 700603, MDR(µg/mL)
[15] = carbapenem & polymyxin resistant clinical isolate, MHB, 5 × 10^5 CFU/mL, 18 h at 37 °C

Structure (SMILES) | CC50 (HepG2) | MIC K. pneumoniae CI 138-16357-20362, PmxR [1, 15] | MIC K. pneumoniae CI Koprana 100650661:1, PmxR [2] | MIC [3] | MIC [4] | MIC [5] | MIC [6] | release of LDH [7] | LDH release CC50 [7] | release of GGT [8] | GGT release CC50 [8] | MIC A. baumannii CI Ptyela 100734512:2, PmxR [9] | MIC S. aureus ATCC 25923, MSSA [10] | MIC [11] | HepG2 - CC50 (HepG2 cells) | MIC P. aeruginosa PA9704, PmxR [12] | MIC [13] | MIC (K. pneumoniae ATCC 13883) | MIC (P. aeruginosa ATCC 27853) | also measured
CC(C)C[C@@H]1NC(=O)[C@@H](Cc2ccccc2)NC(=O)[C@H](CCN)NC(=O)[C@@H](NC(=O)[C@H](CCN)NC(=O)[C@@H](NC(=O)[C@H](CCN)NC(=O)c2ccc(-c3ccccc3)cc2)[C@@H](C)O)CCNC(=O)[C@H]([C@@H](C)O)NC(=O)[C@H](CCN)NC(=O)[C@H](CCN)NC1=O [Compound 10] ({Benzoyl(4-Ph)}-[Dab]T[Dab][Dab][Dab][dF]L[Dab][Dab]T; lactam 4-C) | 298 µM | >32 µg/mL | >32 µg/mL | > 32 µg/mL | > 32 µg/mL | > 32 µg/mL | > 32 µg/mL | almost no release | >128 µg/mL | almost no release | >128 µg/mL |  |  |  |  |  |  |  |  | 
CC(C)C[C@@H]1NC(=O)[C@@H](Cc2ccccc2)NC(=O)[C@H](CCN)NC(=O)[C@@H](NC(=O)[C@@H](CCN)NC(=O)[C@@H](NC(=O)[C@H](CCN)NC(=O)Nc2ccccc2Cl)[C@@H](C)O)CCNC(=O)[C@H]([C@@H](C)O)NC(=O)[C@H](CCN)NC(=O)[C@H](CCN)NC1=O [Compound 16] ({NH(2-ClPh)-CO}-[Dab]T[dDab][Dab][Dab][dF]L[Dab][Dab]T; lactam 4-C) | > 300 µM | >32 µg/mL | >32 µg/mL | > 32 µg/mL | > 32 µg/mL | > 32 µg/mL | > 32 µg/mL |  |  |  |  | >32 µg/mL | >32 µg/mL | > 32 µg/mL | >300 µM | >32 µg/mL |  |  |  | 
CC(C)C[C@@H]1NC(=O)[C@@H](Cc2ccccc2)NC(=O)[C@H](CCN)NC(=O)[C@@H](NC(=O)[C@H](CCN)NC(=O)[C@@H](NC(=O)[C@H](CCN)NC(=O)Nc2ccccc2Cl)[C@@H](C)O)CCNC(=O)[C@H]([C@@H](C)O)NC(=O)[C@H](CCN)NC(=O)[C@H](CCN)NC1=O [Compound 13] ({NH(2-ClPh)-CO}-[Dab]T[Dab][Dab][Dab][dF]L[Dab][Dab]T; lactam 4-C) | > 300 µM | >32 µg/mL | >32 µg/mL | > 32 µg/mL | > 32 µg/mL | > 32 µg/mL | > 32 µg/mL |  |  |  |  | >32 µg/mL | >32 µg/mL | > 32 µg/mL | >300 µM | >32 µg/mL | > 32 µg/mL |  |  | 
CCCCCCCC[C@H]1NC(=O)[C@H](CCN)NC(=O)[C@@H](NC(=O)[C@H](CCN)NC(=O)[C@@H](NC(=O)[C@H](CCN)NC(=O)CCCCCCC)[C@@H](C)O)CCNC(=O)[C@H]([C@@H](C)O)NC(=O)[C@H](CCN)NC(=O)[C@H](CCN)NC(=O)[C@H](CC(C)C)NC1=O (Octanoyl-[Dab]T[Dab][Dab][Dab][dGly(nOct)]L[Dab][Dab]T; lactam 4-C) | 254 µM |  |  | 8 µg/mL (≈ 6.6 µM) | 16 µg/mL (≈ 13.2 µM) | 16 µg/mL (≈ 13.2 µM) | 16 µg/mL (≈ 13.2 µM) |  |  |  |  |  |  | 16 µg/mL (≈ 13.2 µM) |  |  |  | 2 µg/mL (≈ 1.65 µM) | 2 µg/mL (≈ 1.65 µM) | MIC (E. coli ATCC 25922): 2 µg/mL (≈ 1.65 µM)
CCCCCCCC(=O)N[C@@H](CCN)C(=O)N[C@H](C(=O)N[C@@H](CCN)C(=O)N[C@H]1CCNC(=O)[C@H]([C@@H](C)O)NC(=O)[C@H](CCN)NC(=O)[C@H](CCN)NC(=O)[C@H](CC(C)C)NC(=O)[C@@H](Cc2ccccc2)NC(=O)[C@H](CCO)NC1=O)[C@@H](C)O [Compound 33] (Octanoyl-[Dab]T[Dab][Dab][hSer][dF]L[Dab][Dab]T; lactam 4-C) | > 300 µM | >32 µg/mL | >32 µg/mL | > 32 µg/mL | > 32 µg/mL | > 32 µg/mL | > 32 µg/mL |  |  |  |  |  |  | > 32 µg/mL |  |  | > 32 µg/mL | > 32 µg/mL | > 32 µg/mL | MIC (A. baumannii ATCC 19606): > 32 µg/mL; MIC [14]: > 32 µg/mL
CC(C)C[C@@H]1NC(=O)[C@@H](Cc2ccccc2)NC(=O)[C@H](CCN)NC(=O)[C@@H](NC(=O)[C@H](CCN)NC(=O)[C@@H](NC(=O)[C@H](CCN)NC(=O)c2ccc(Oc3ccccc3)cc2)[C@@H](C)O)CCNC(=O)[C@H]([C@@H](C)O)NC(=O)[C@H](CCN)NC(=O)[C@H](CCN)NC1=O [Compound 14] ({Benzoyl(4-OPh)}-[Dab]T[Dab][Dab][Dab][dF]L[Dab][Dab]T; lactam 4-C) | 287 µM |  | >32 µg/mL |  | > 32 µg/mL | > 32 µg/mL | > 32 µg/mL | almost no release | >128 µg/mL | almost no release | >128 µg/mL |  |  |  |  |  |  |  |  | MIC K. pneumoniae CI 138-16357-20362, PmxR ([1]; CI 138-16357-20362, PmxR, 18 h): >32 µg/mL
